Literature values as cited in patent US20260209855A1, “COMPOSITIONS AND METHODS FOR DETECTION AND TREATMENT OF PROSTATE CANCER” (The Regents of the University of California, priority 2022, published 2026).

What was measured:
[1] = system: PCa; conditions: result in words
[2] = system: benign prostatic hyperplasia (BPH); conditions: patients with BPH and AI, treatment prior to BPH diagnosis; result in words
[3] = system: PCa patients; conditions: clinical trials; result in words

## bevacizumab
[1]
  Clinical trial results in the treatment of PCa: conflicting results

## CN(Cc1cnc2nc(N)nc(N)c2n1)c1ccc(C(=O)N[C@@H](CCC(=O)O)C(=O)O)cc1 [methotrexate]
[2]
  Likelihood to develop BPH: did not have this effect

B1: siltuximab (antibody, chains of the INN, looked up, V domains shown)
VH: EVQLVESGGKLLKPGGSLKLSCAASGFTFSSFAMSWFRQSPEKRLEWVAEISSGGSYTYYPDTVTGRFTISRDNAKNTLYLEMSSLRSEDTAMYYCARGLWGYYALDYWGQGTSVTVSS
VL: QIVLIQSPAIMSASPGEKVTMTCSASSSVSYMYWYQQKPGSSPRLLIYDTSNLASGVPVRFSGSGSGTSYSLTISRMEAEDAATYYCQQWSGYPYTFGGGTKLEIK
notes: An IL-6 antagonist tested in clinical trials in PCa patients
[3]
  Clinical efficacy in PCa patients: no clinical efficacy
